According to publication PMC7259466 (bioRxiv, 2020):
Where two headings read alike, the source gives them in different places.

Key:
in vitro = conditions: African green monkey, CPE CC50, uninfected Vero E6, 72 h, Cell Titer-Glo
LC3B [1] = assay: LC3B immunostaining autophagy assay, average of four cell lines; format: cell-based; conditions: for EC50: 16 h, read-out: Autophagy EC50
[2] = cited from earlier work; for Cmax: human plasma, clinically efficacious doses
Vero-E6 cells [3] = assay: Nuclei counts in autophagy assay in Vero-E6 cells; format: cell-based; conditions: for cytotoxicity based on nuclei counts: highest concentrations (50 μM for all except for ROC-325 at 25 μM)
SARS-CoV-2 [4] = conditions: similar CPE assay with SARS-CoV-2 in Vero-E6 cells; ref [61]; cited from earlier work
Vero E6 cells = conditions: for cell toxicity: Vero E6, up to 30 μM; for cytotoxic: at all concentrations
SARS-CoV-2 [5] = format: cell-based, SARS CoV-2 (USA_WA1/2020); conditions: Vero-E6, up to 30 μM
LC3B [6] = assay: LC3B immunostaining autophagy assay in Vero-E6 cells; format: cell-based; conditions: ~16 h; for LC3B spot counts: Vero-E6, 50 μM – 0.02 μM
Vero-E6 cells [7] = conditions: drug-repurposing screen in Vero-E6 cells; ref [61]; cited from earlier work
Cell = format: cell-based
[8] = in monkey; ref [77]; cited from earlier work
LC3B [9] = assay: LC3B immunostaining autophagy assay in Huh-7.5 cells; format: cell-based, human
acidic organelles = assay: LysoTracker Deep Red staining assay in Vero-E6 cells; format: cell-based; conditions: Vero-E6, cell counts, highest concentration

Row | SMILES | CC50 (in vitro) | EC50 (LC3B [1]) | cytotoxicity based on nuclei counts (Vero-E6 cells [3]) | IC50 (SARS-CoV-2 [4]) | cell toxicity (Vero E6 cells) | cytotoxic (Vero E6 cells) | activity against SARS-CoV-2 CPE (SARS-CoV-2 [5]) | CC50 (Vero-E6 cells [7]) | CC50 at 16 h (Cell) | LC3B spot counts (LC3B [6]) | other results
1 | CCN(CC)CCCC(C)Nc1ccnc2cc(Cl)ccc12 (centres unmarked) [Chloroquine] | > 30 µM | 3.29 ± 1.86 µM | not cytotoxic | 42 µM | no associated cell toxicity | less than 50% | – | – | – | – | Vd ([2]; ref [78], [79]): 100 L/kg; bioavailable ([2]; ref [78], [79]): 75%
2 | CN(C)CCCN1c2ccccc2CCc2ccc(Cl)cc21 [Clomipramine] | > 30 µM | – | not cytotoxic | – | – | less than 50% | completely prevent SARS-CoV-2 CPE | > 30 µM | > 50 µM | – | increasing LC3B (LC3B [1]; all cell lines except for Vero-E6): effective; Cmax ([2]; ref [76]): 290 nM; Vd ([2]; ref [76]): high; submaximal increase of LC3B spot counts (LC3B [6]; Vero-E6, normalized to DMSO (0%) and CQ (100%)): 40%; cytotoxicity (Vero E6 cells; at 30.0 μM): less than 20%
3 | CCN(CC)CCNc1ccc(CO)c2sc3ccccc3c(=O)c12 [Hycanthone] | – | 7.35 ± 4.7 µM | – | – | cytotoxic at the highest concentrations | – | moderate levels of activity | – | 11.3 ± 2.73 µM | maximal spot counts | absorption [8]: well-absorbed; cells killed (Vero-E6 cells [3]; at 50 μM): approximately 60%; reduction of cell viability (Vero E6 cells; at 30 μM): ~100%
4 | CCN(CCO)CCCC(C)Nc1ccnc2cc(Cl)ccc12 (centres unmarked) [Hydroxychloroquine, hydroxychloroquine] | > 30 µM | 6.55 ± 6.67 µM | not cytotoxic | 9.21 µM | no associated cell toxicity | less than 50% | – | – | > 50 µM | – | Cmax ([2]; ref [80]): 1500 nM; T1/2 ([2]; ref [80]): ~40 days; absorption ([2]; ref [80]): rapid and complete absorption
5 | OC(c1cc(C(F)(F)F)nc2c(C(F)(F)F)cccc12)C1CCCCN1 (centres unmarked) [Mefloquine] | – | – | completely toxic | 7.11 µM | cytotoxic at the highest concentrations | – | moderate levels of activity | > 18.5 µM | 18.4 ± 2.08 µM | ineffective | EC50 (LC3B [9]; Homo sapiens, Huh7.5, read-out: Autophagy EC50): 7.3 µM; LC3B spot counts (LC3B [9]; Huh-7.5): increased LC3B spot counts even at low concentrations; toxicity in LysoTracker assay (acidic organelles): toxic at the highest concentration; Cmax ([2]; ref [81]): 4500 nM; cytotoxicity (Vero E6 cells; at 15.0 to 30.0 μM): 100%
6 | CCC(CC)COC(=O)[C@H](C)N[P@](=O)(OC[C@H]1O[C@@](C#N)(c2ccc3c(N)ncnn23)[C@H](O)[C@@H]1O)Oc1ccccc1 [Remdesivir, remdesivir] | – | – | – | – | no apparent cytotoxicity | – | – | – | – | – | –
